Measurements from ChEMBL document CHEMBL1127083 (J Med Chem, 1993).

Experiments:
[1] = target: Leukotriene B4 receptor 1 (Homo sapiens, UniProt Q15722); assay: Tested for inhibition of specific binding of [3H]LTB4 to human neutrophil expressing LTB4 receptor
Leukotriene B4 receptor = Leukotriene B4 receptor (Homo sapiens, UniProt Q9NPC1+Q15722); assay: Inhibition of LTB4-induced up-regulation of human neutrophil CD11b/CD18 integrin; assay type: functional

Sequence of Leukotriene B4 receptor 1 (Q15722 whole entry): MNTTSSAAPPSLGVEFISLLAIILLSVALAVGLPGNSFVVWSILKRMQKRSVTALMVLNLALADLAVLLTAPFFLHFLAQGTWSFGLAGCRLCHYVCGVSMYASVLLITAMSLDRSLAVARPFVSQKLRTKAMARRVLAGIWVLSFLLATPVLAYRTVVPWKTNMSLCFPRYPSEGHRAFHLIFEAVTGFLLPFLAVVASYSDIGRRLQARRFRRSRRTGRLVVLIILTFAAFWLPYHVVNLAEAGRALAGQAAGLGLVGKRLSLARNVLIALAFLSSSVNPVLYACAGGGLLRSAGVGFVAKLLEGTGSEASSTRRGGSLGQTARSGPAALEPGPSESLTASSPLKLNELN

Compound	Ki [1] [nM]	IC50 (Leukotriene B4 receptor) [nM]
CCc1cc(-c2ccc(F)cc2)c(O)cc1OCCCOc1ccc2c(=O)c3cc(C(=O)O)ccc3oc2c1CCC(=O)O	0.47	1.2
CCc1cc(-c2ccccc2)c(O)cc1OCCCOc1ccc2c(=O)c3cc(C(=O)O)ccc3oc2c1CCC(=O)O	0.57	3.4
CCc1cc(-c2ccc(F)cc2)c(O)cc1OCCCOc1ccc2c(=O)c3ccccc3oc2c1CCC(=O)O	36	1.8
CCc1cc(-c2ccccc2)c(O)cc1OCCCOc1ccc2c(=O)c3ccccc3oc2c1CCC(=O)O	22	5.4
